# Data: patent publication US20220296628A1, “RNA COMBINATIONS AND COMPOSITIONS WITH DECREASED IMMUNOSTIMULATORY PROPERTIES” (CureVac AG, priority 2019, published 2022)
# What was measured:
# human PBMCs = assay: PBMC co-transfection of PpLuc mRNA and antagonists (Table 6), luciferase activity in cell lysate; assay type: cell-based; settings: 24 hours post transfection, DOTAP, antagonist 20% weight, compared to PpLuc mRNA without admixture (FIG. 5B)
# Protocol: The preparation of human PBMCs was performed according to example 2.1. For transfection experiments 2×10^5 human PBMCs per well were seeded into each well of a 96-well plate in X-Vivo 15 medium (Lonza). For preparation of DOTAP (vehicle) complexes containing both the antagonist (either 2-O-methylated oligonucleotide variants, RNA oligonucleotides, DNA oligonucleotides or small molecules) as well as PpLuc mRNA (SEQ ID NO: 82, same RNA design as shown in table 2), the antagonist was first added to PpLuc mRNA at a weight percentage of 20% (1:5 mRNA: oligo/small molecule). The molar ratio of PpLuc mRNA to antagonist was thus 1:45 (MW (Oligonucleotide)=2907 g/mol, MW (PpLuc mRNA)=652377 g/mol). DOTAP complexes containing PpLuc mRNA and antagonist were formed at a ratio of 5 μl of DOTAP per 1 μg of mRNA and 100 ng were transfected. […] To quantify background stimulation, PBMC were incubated either with DOTAP alone (“vehicle”) or RPMI (“medium”) only. […] Expression analysis was performed by measuring the luciferase activity, which is measured as relative light units (RLU) in a BioTek SynergyHT plate reader. PpLuc activity is measured at 5 seconds measuring time using 50 μl of lysate and 200 μl of luciferin buffer (75 μM luciferin, 25 mM Glycylglycin, pH 7.8 (NaOH), 15 mM MgSO4, 2 mM ATP).
# mice (strain 129SV) = assay: PpLuc expression in liver lysates after i.v. injection of LNP-formulated PpLuc mRNA with or without oligonucleotide; assay type: in vivo, mouse; settings: 24 hours post i.v. injection, 10 μg or 30 μg mRNA (either dose), compared to PpLuc mRNA without oligonucleotide (FIG. 3)
# Protocol: For preparation of Lipid nanoparticles (LNP) containing both PpLuc mRNA and 2-O-methylated oligonucleotide, first the 2′-O-methylated oligonucleotide was added to PpLuc mRNA at a weight percentage of either 20% or 6.7% (see Table 3). LNP containing PpLuc mRNA either with or without admixture of 2-O-methylated oligonucleotide were prepared using cationic lipid, cholesterol, PEG-lipid and a neutral lipid. The mRNA was diluted to 1 g/L in citrate buffer, pH 4. The ethanolic lipid solution was mixed with the aqueous RNA solution at a ratio of 1:3 (vol/vol) using a Nanoassemblr (PrecisionNanoSystems). The ethanol was then removed and the buffer replaced by 10 mM HEPES, pH 7.4 comprising 9% Sucrose by dialysis. Finally, the LNP-formulated RNA was adjusted to 0.2 g/L.
# For in vivo experiments, 8 weeks old female mice (around 25 g, strain 129SV) were injected with the various LNP formulations (see tables 4 and 5). 4 animals were used per group. […]
# To prepare tissue lysates, first a steal bead was added to each liver. […] Plates were introduced into a plate reader (Berthold Technologies TriStar2 LB 942) and 50 μl per well of Beetle-Juice (PJK GmbH) containing luciferin as substrate for firefly luciferase was injected. Luciferase activity was quantified as relative light units (RLU). […]
# [1] = test system: human peripheral blood mononuclear cells (PBMCs); assay: PBMC stimulation: DOTAP co-transfection of capped PpLuc mRNA with oligonucleotide, cytokines by CBA; assay type: cell-based; settings: DOTAP co-transfection with capped PpLuc mRNA 1 μg/ml, oligonucleotide 0.25 μg/ml (25% weight), supernatant 24 hours, compared to PpLuc mRNA only (FIG. 1B)
# Protocol: Human peripheral blood mononuclear cells (PBMCs) were isolated from heparinized blood of healthy volunteers by standard Ficoll-Hypaque density gradient centrifugation (Ficoll 1.078 g/ml). PBMCs were re-suspended in RPMI 1640 supplemented with 10% heat-inactivated FCS. After counting, cells are re-suspended at 50 million cells per ml in fetal calf serum, 10% DMSO, and frozen. Before usage, the cells are thawed.
# For transfection experiments, 2×10^5 human PBMCs per well were seeded into each well of a 96-well plate in X-Vivo 15 medium (Lonza). For preparation of DOTAP complexes containing both immunostimulatory non-coding RNA and a 2′-O-methylated oligonucleotide (SEQ ID NO: 85), the oligonucleotide was first added to immunostimulatory non-coding RNA at a weight percentage of 25%. For preparation of DOTAP complexes containing both PpLuc mRNA and a 2′-O-methylated oligonucleotide, the oligonucleotide was first added to PpLuc mRNA at a weight percentage of 25%. The molar ratio of PpLuc mRNA to oligonucleotide was thus […] (MW (Oligonucleotide)=2907 g/mol, MW (PpLuc mRNA)=652377 g/mol). DOTAP complexes containing either immunostimulatory non-coding RNA or PpLuc mRNA without or with oligonucleotide were formed at a ratio of 3 μl of DOTAP per 1 μg of RNAdjuvant or 1 μg of mRNA. […] To quantify background stimulation, PBMC were incubated either with DOTAP alone (“vehicle”) or medium only. […]
# In supernatants collected from PBMC stimulated without or with 2-O-methylated oligonucleotide, the concentrations of IFN-α, IFN-γ, TNF, were measured by Cytometric Bead Array (CBA) according to the manufacturer's instructions (BD Biosciences) using the following kits: Human Soluble Protein Master Buffer Kit (catalog no. 558264), Assay Diluent (catalog no. 560104), Human IFN-α Flex Set (catalog no. 560379), Human IFN-γ Flex Set (catalog no. 558269), Human TNF Flex Set (catalog no. 560112); all kits from BD Biosciences. The data was analyzed using the FCAP Array v3.0 software (BD Biosciences).
substance,measurement,setting,value
"5′-GAG CGmG CCA-3′ (GAGCNGCCA; 2'-O-methyl guanosine at position 5; 9mer oligonucleotide; modified_base (5)..(5) n can be any nucleotide, wherein the nucleotide is 2-O-methylated, preferably a 2-O-methylated guanosine) [Gm18, 9-mer 2′-O-methylated RNA oligonucleotide; position 5 is 2′-O-methylated guanosine (Gm); antagonist of TLR7 and 8]",expression of PpLuc in PBMCs,human PBMCs,increases the expression
same,expression of PpLuc in liver lysates (luciferase activity),mice (strain 129SV),increases the expression
same,secretion of cytokine INF-a,[1],reduced secretion
same,secretion of cytokine INF-y,[1],reduced secretion
same,secretion of cytokine TNF,[1],reduced secretion
